Results reported in PubChem BioAssay (NCI).
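Five concentrations, 48 hours, 96-well plates. Here, GI50 denotes the concentration required for 50% inhibition of growth. The concentration for full growth arrest is given as TGI.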

Experiments:
Test in all cases: NCI anticancer screen, dose series, 48 h
MDA-MB-435 = system: MDA-MB-435
PC-3 prostate = system: PC-3 prostate
SK-MEL-5 melanoma = system: SK-MEL-5 melanoma
A549 NSCLC = system: A549 NSCLC
OVCAR-8 ovarian = system: OVCAR-8 ovarian
ACHN renal = system: ACHN renal
KM12 colon = system: KM12 colon
TK-10 renal = system: TK-10 renal
SNB-75 CNS = system: SNB-75 CNS
MCF7 breast = system: MCF7 breast
MDA-N = system: MDA-N
HCT-15 colon = system: HCT-15 colon
786-0 renal = system: 786-0 renal
M14 melanoma = system: M14 melanoma
OVCAR-4 ovarian = system: OVCAR-4 ovarian
UACC-62 melanoma = system: UACC-62 melanoma
MALME-3M melanoma = system: MALME-3M melanoma
BT-549 breast = system: BT-549 breast

Row | SMILES | TGI (MDA-MB-435) | TGI (PC-3 prostate) | TGI (SK-MEL-5 melanoma) | TGI (A549 NSCLC) | TGI (OVCAR-8 ovarian) | TGI (ACHN renal) | TGI (KM12 colon) | TGI (TK-10 renal) | TGI (SNB-75 CNS) | TGI (MCF7 breast) | TGI (MDA-N) | TGI (HCT-15 colon) | TGI (786-0 renal) | TGI (M14 melanoma) | TGI (OVCAR-4 ovarian) | TGI (UACC-62 melanoma) | TGI (MALME-3M melanoma) | TGI (BT-549 breast) | GI50 (UACC-62 melanoma)
1 | CCOC(=O)C1(CO)CSCCSC1 | > 100 µM | > 100 µM | > 100 µM | > 100 µM | > 100 µM | > 100 µM | > 100 µM | > 100 µM | > 100 µM | > 100 µM | > 100 µM | > 100 µM | – | – | – | – | – | – | –
2 | COC(=O)/C(C)=N/NC(=S)SC | > 100 µM | > 100 µM | > 100 µM | – | > 100 µM | > 100 µM | > 100 µM | > 100 µM | – | > 100 µM | > 100 µM | > 100 µM | > 100 µM | 57 µM | > 100 µM | – | – | – | –
3 | Cc1nc2ccccc2c(=O)n1NC(=O)c1ccccn1 | > 100 µM | > 100 µM | > 100 µM | > 100 µM | > 100 µM | > 100 µM | > 100 µM | > 100 µM | > 100 µM | – | > 100 µM | – | > 100 µM | > 100 µM | > 100 µM | > 100 µM | > 100 µM | > 100 µM | –
4 | CC(C)=CCc1c(O)cc(O)c2c1OC(c1ccc(O)cc1)C(O)C2=O (centres undefined) | – | – | 41.4 µM | 80.8 µM | > 100 µM | 82.9 µM | 58.9 µM | 60.6 µM | 99 µM | – | – | 55.7 µM | – | 57.3 µM | > 100 µM | 46.8 µM | 70.4 µM | – | –
5 | Cc1cccc2nc(-c3ccccc3)cc(=O)n12 | – | > 100 µM | > 100 µM | > 100 µM | > 100 µM | > 100 µM | > 100 µM | > 100 µM | – | > 100 µM | > 100 µM | > 100 µM | > 100 µM | > 100 µM | > 100 µM | > 100 µM | > 100 µM | > 100 µM | –
6 | O=C(CP(=O)(c1ccccc1)c1ccccc1)c1cccc(C(=O)CP(=O)(c2ccccc2)c2ccccc2)c1 | > 100 µM | > 100 µM | > 100 µM | > 100 µM | > 100 µM | > 100 µM | > 100 µM | > 100 µM | 37.6 µM | > 100 µM | – | > 100 µM | > 100 µM | > 100 µM | > 100 µM | > 100 µM | – | – | –
7 | COc1cccc(Nc2nc(C)c([N+](=O)[O-])c(Nc3cccc(OC)c3)n2)c1 | – | > 100 µM | 77.2 µM | > 100 µM | > 100 µM | > 100 µM | – | 95.7 µM | 4.73 µM | > 100 µM | > 100 µM | > 100 µM | > 100 µM | > 100 µM | – | 38.8 µM | > 100 µM | 8.14 µM | –
8 | Cc1[nH]c(=O)[nH]c(=O)c1/C=C/C(=O)NC(CO)CC(C)C (centres undefined) | – | – | > 375 µM | > 375 µM | > 237 µM | – | > 375 µM | – | > 375 µM | > 375 µM | – | > 375 µM | – | – | > 375 µM | > 375 µM | > 375 µM | – | –
9 | C1=C(CC2=C[P+](c3ccccc3)(c3ccccc3)C=C(c3ccccc3)O2)OC(c2ccccc2)=C[P+]1(c1ccccc1)c1ccccc1 | 1.11 µM | 1.4 µM | 0.964 µM | 5.49 µM | 0.69 µM | 1.98 µM | 1.1 µM | 1.67 µM | 0.881 µM | – | 1.22 µM | 3.22 µM | 2.07 µM | 1.8 µM | – | – | 0.697 µM | 0.309 µM | –
10 | CCC1CN2CCc3cc(OC)c(OC)cc3C2CC1CC1c2cc(OC)c(OC)cc2CCN1C(=O)C(N)Cc1ccccc1 (centres undefined) | – | – | 5.34 µM | 7.85 µM | 11.1 µM | 11.8 µM | 10.2 µM | 8.53 µM | 10.6 µM | – | – | 10.9 µM | – | 2.19 µM | – | 11.2 µM | 6.46 µM | – | –
11 | O=C1c2ccccc2C(=O)C2NC(CCCCCSSCCCCCC3=NC4C(=O)c5ccccc5C(=O)C4N3)=NC12 (centres undefined) | > 100 µM | > 100 µM | > 100 µM | – | > 100 µM | > 100 µM | > 100 µM | > 100 µM | – | > 100 µM | – | > 100 µM | > 100 µM | > 100 µM | > 100 µM | – | – | – | –
12 | Cc1ccc(S(=O)(=O)NC(=O)NCc2ccc(S(N)(=O)=O)cc2)cc1 | > 100 µM | > 100 µM | > 100 µM | > 100 µM | – | > 100 µM | > 100 µM | > 100 µM | > 100 µM | > 100 µM | – | > 100 µM | > 100 µM | > 100 µM | > 100 µM | > 100 µM | > 100 µM | – | –
13 | COc1ccc(C2C(C(=O)O)=C(CO)Oc3cc4c(cc32)OCO4)cc1 (centres undefined) | – | – | > 100 µM | > 100 µM | > 100 µM | > 100 µM | – | > 100 µM | > 100 µM | – | – | > 100 µM | – | > 100 µM | > 100 µM | > 100 µM | > 100 µM | – | –
14 | NCc1ccc(-c2ccc(CN)s2)s1 | > 100 µM | > 100 µM | > 100 µM | > 100 µM | > 100 µM | > 100 µM | > 100 µM | 68.7 µM | > 100 µM | > 100 µM | > 100 µM | > 100 µM | > 100 µM | > 100 µM | > 100 µM | > 100 µM | > 100 µM | – | –
15 | COc1cc2c(cc1C)NC(=O)/C2=C/c1cccnc1 | 86.1 µM | > 64.6 µM | 25.3 µM | > 55.3 µM | > 58.7 µM | > 56.8 µM | 29.1 µM | 31.1 µM | > 100 µM | 32.3 µM | – | > 78 µM | > 52.5 µM | 37.5 µM | 56.4 µM | 25.9 µM | > 52.9 µM | > 82 µM | 10.1 µM
16 | O=C1C2=Cc3ccccc3CCN2c2ccccc21 | > 56.3 µM | > 62.7 µM | 34.1 µM | > 100 µM | > 100 µM | > 31.6 µM | > 62 µM | > 100 µM | > 100 µM | > 61 µM | – | > 79.5 µM | > 31.6 µM | 26.8 µM | > 100 µM | – | > 76.7 µM | 33 µM | –
